Experimental data as given in paper PMC5712521, “Dendrogenin A drives LXR to trigger lethal autophagy in cancers” (Nature Communications, 2017).
Like-named read-outs stand apart in the source and are kept apart here.

Key:
A375 cells = experiment: Clonogenicity inhibition; assay type: cell-based; conditions: Homo sapiens, A-375; A375 (H); 72 h; read-out: Clono IC50
Source text: (§1) Supplementary Fig. 1. a DDA inhibited m elanom a colony form ation. Melanom a cells were […]
(§2) a 0.5% solution of crystal violet in water and analyzed by microscopy. Images are representative of 5 independent experiments. b Evaluation of DDA-induced cytotoxicity (cytotox) and clonogenicity (clono) inhibition in a subset of human (H) and mouse (M) m elanom a cell lines. T he BRaf status in m elanom a cells lines is shown. […]

WM35 cells = experiment: Clonogenicity inhibition; assay type: cell-based; conditions: Homo sapiens; WM35 (H); 72 h; read-out: Clono IC50
Source text: as §1, §2

WM-266-4 cells = experiment: Clonogenicity inhibition; assay type: cell-based; conditions: Homo sapiens; WM-266-4 (H); 72 h; read-out: Clono IC50
Source text: as §1, §2

SKMEL-2 cells = experiment: Clonogenicity inhibition; assay type: cell-based; conditions: Homo sapiens, SK-MEL-2; SKMEL-2 (H); 72 h; read-out: Clono IC50
Source text: as §1, §2

WM115 cells = experiment: Clonogenicity inhibition; assay type: cell-based; conditions: Homo sapiens, WM-115; WM115 (H); 72 h; read-out: Clono IC50
Source text: as §1, §2

HL60 cells = experiment: Immunoblot densitometry; assay type: cell-based, human; conditions: 5 µM DDA, 24 h
Protocol: Immunoblotting was carried out as described previously. Proteins were separated on SDS-PAGE gels, electro-transferred onto polyvinylidene difluoride membranes and incubated overnight at 4 °C with the following antibodies: anti-Atg3, anti-Atg5 (D1G9), anti-Atg7 (D12B11), anti-Beclin (D40C5), anti-caspase-3 (Cell Signaling), anti-Bcl-2 (Millipore), anti-Bax (Millipore), anti-LC3 (Sigma-Aldrich), anti-LXRα (SantaCruz), anti-LXRβ (SantaCruz), anti-Nur77 (Active motif), anti-NOR1 (R&D systems), anti-PARP (Cell Signaling), anti-Vps34 (Cell Signaling), or anti-Actin (Millipore). For visualization, an ECL plus kit (Amersham Biosciences) was used, and chemiluminescence was measured by autoradiography (Supplementary Fig. 9). Specific bands were quantified with ImageQuant software. […]
(n=16- 20 mice/group) engrafted with KG1 cells or HL60 cells were treated with DDA (20 mg/kg/day, i.p.) or solvent vehicle (control). Tumor growth was monitored over time and was analyzed for significance using repeated measures ANOVA (***P<0.001). The mean tumor volumes ± SEM are shown. e Average tumor weight at the end of the experiments in d. *P<0.5, **P<0.01, ANOVA. f Mean tumor volumes measured at the end of the experiments for HL60 and KG1 graf ted into NOD/SCID or NMRI-Fo x1 -nude mice treated with DDA (40 mg/kg/day, p.o. or 20 mg/kg/day, i.p.) or solvent vehicle (control) (n=10- 20 mice per group). […]

AML cells = experiment: Immunoblot of caspase-3 and PARP in AML cells; assay type: cell-based, human; conditions: 24 h
Protocol: Immunoblotting was carried out as described previously. Proteins were separated on SDS-PAGE gels, electro-transferred onto polyvinylidene difluoride membranes and incubated overnight at 4 °C with the following antibodies: anti-Atg3, anti-Atg5 (D1G9), anti-Atg7 (D12B11), anti-Beclin (D40C5), anti-caspase-3 (Cell Signaling), anti-Bcl-2 (Millipore), anti-Bax (Millipore), anti-LC3 (Sigma-Aldrich), anti-LXRα (SantaCruz), anti-LXRβ (SantaCruz), anti-Nur77 (Active motif), anti-NOR1 (R&D systems), anti-PARP (Cell Signaling), anti-Vps34 (Cell Signaling), or anti-Actin (Millipore). For visualization, an ECL plus kit (Amersham Biosciences) was used, and chemiluminescence was measured by autoradiography (Supplementary Fig. 9). Specific bands were quantified with ImageQuant software.
Supplementary Fig. 6. […]
AML cells treated with DDA for 24 h in the absence or presence of 50 µM z- VAD-fmk (a
caspase inhibitor). j Effect of z-VAD-fmk on DDA-induced c ytotox icit y in KG1 and HL60 cells. […]
Images are
representative of 3 independent experim ents.

[1] = DDA concentrations in spleen and bone marrow; assay type: in vivo, NSG mice; conditions: NSG, mouse, ip, daily i.p. 20 mg/kg for 21 days
Protocol: Bars represent S.E.M. ( ***P<0.001, **P<0.01, t test).
(also on this page, place not known: plasma times treatment mice administration plasma times treatment mice administration mg/kg mg/kg Summary pharmacokinetic parameters mice. were measured daily administration mg/kg days. (***P<0.001, mg/kg DDA in plasma (p.o.) (p.o.) DDA in plasma (µM) i.p. i.v. (mg/kg) 20 T1/2 0.1 T1/2 elimination 1.0 T1/2 - Bioavailability (%EP) (µM) 370 Tmax 0.002 marrow 0.01 0.1 1 10 Control DDA DDA level (µM) ***)

CC(C)CCC[C@@H](C)[C@H]1CC[C@H]2[C@@H]3C[C@@H](NCCc4cnc[nH]4)[C@@]4(O)C[C@@H](O)CC[C@]4(C)[C@H]3CC[C@]12C [DDA, Dendrogenin A]
IC50 (A375 cells): 1.5 ± 0.3 µM | IC50 (WM35 cells): 1.4 ± 0.2 µM | IC50 (WM-266-4 cells): 1.2 ± 0.4 µM | IC50 (SKMEL-2 cells): 1.4 ± 0.4 µM | IC50 (WM115 cells): 1.5 ± 0.3 µM | NOR1 protein, densitometry relative to untreated (HL60 cells): 1.9 | Nur77 protein, densitometry relative to untreated (HL60 cells): 1.8 | cleaved PARP, densitometry (AML cells; 5 µM DDA + 50 µM z-VAD-fmk): 1.9 | cleaved casp 3, densitometry (AML cells; 5 µM DDA + 50 µM z-VAD-fmk): 0.5 | cleaved PARP, densitometry (AML cells; 5 µM DDA, without z-VAD-fmk): 6.1 | cleaved casp 3, densitometry (AML cells; 5 µM DDA, without z-VAD-fmk): 4.3 | cleaved PARP, densitometry (AML cells; 10 µM DDA + 50 µM z-VAD-fmk): 6.1 | cleaved casp 3, densitometry (AML cells; 10 µM DDA + 50 µM z-VAD-fmk): 0.8 | cleaved PARP, densitometry (AML cells; 10 µM DDA, without z-VAD-fmk): 10.8 | cleaved casp 3, densitometry (AML cells; 10 µM DDA, without z-VAD-fmk): 5.2 | concentration at 21 days ([1]; bone marrow, read-out: DDA concentration in the bone marrow): 3.48 ± 0.53 µM | concentration at 21 days ([1]; spleen, read-out: DDA concentration in the spleen): 1.32 ± 0.03 µM
